# Measurements as given in patent US12545677B2, “Compounds useful as factor XIa inhibitors” (JANSSEN PHARMACEUTICA NV, priority 2020, dated 2026).
# How the values were obtained:
# [1] = system: HepG2 cells; assay: Cell viability, Cell Titer Fluor Assay, parallel to Seahorse assay; format: cell-based; conditions: Homo sapiens, 1 h, one-hour incubation, read-out: IC50, cellular viability
# Method: The purpose of this assay was to investigate the effect of the compound of formula (I-A) on mitochondrial respiration in HepG2 cells using the Agilent Seahorse XFe96 analyzer. Cell viability was also determined in HepG2 cells in parallel to the Seahorse assay.
# Cell viability measurements: HepG2 cells were seeded onto black-walled 96 well plates at a density of 40,000 cells/well in EMEM containing 10% HI FBS and 1× Pen/Strep and allowed to attach overnight. The next day, test compounds were prepared and diluted in EMEM. Following a one-hour incubation with the test article(s), cell viability was assessed using the Cell Titer Fluor Assay (Promega, Cat no. G6081) according to the manufacturer's protocol. The viability assay monitors activity of […], a ubiquitous protease found in live cells.
# Data Analyses: Mitochondrial SRC (spare respiratory capacity) was calculated by subtracting the rate of the basal respiration from the rate of the maximal respiration. SRC values were automatically generated by the Report Generator (Agilent Technologies-version 4.0). All experiments were run in triplicate and the mean and standard deviations were calculated for each test concentration. All data were normalized to vehicle controls.
# IC50 values were determined by nonlinear regression and fitting of the dose response curves to a […] equation with variable slope (Hill coefficient): […]
# [2] = system: Salmonella typhimurium strains TA98 and TA mixed; assay: AMES II assay; format: cell-based; conditions: absence and presence of S9
# Method: Biological Example 7: AMES II Assay
# The aim of this study was to evaluate compound(s) and/or their metabolite(s) for their ability to induce reverse mutations in a gene of histidine-requiring Salmonella typhimurium strains to produce histidine-independent strains of these bacteria, in the absence and in the presence of a mammalian metabolic activation system.
# Mutagenic potential was assessed by using an in-house adaptation of the Ames II Mutagenicity Assay kit from Xenometrics (Boulder, CA, USA). The strains TA98 and TA mixed (a combination of 6 strains) used in this study were able to detect frame-shift mutations and base pair substitutions respectively. […]
# In the in vitro gene reverse mutation test, effects were determined by exposing a mutant strain of Salmonella typhimurium to various concentrations of the test compound. […] These colonies (revertants) are readily detectable due to their ability to grow on a histidine deficient medium. […] The revertant bacteria are detected by their ability to grow in the absence of the amino acid required by the parent test strain. […] The strains containing the plasmid, pKM101, are reverted by a number of mutagens that are detected weakly or not at all with the non plasmid bearing parent strains. […]
# [3] = system: activated partial thromboplastin time (aPTT); assay: Ex vivo clotting assay (aPTT); format: in vivo, New Zealand White (NZW) rabbits; conditions: for ex vivo aPTT Onset of Clotting Time, mean: n 4, in s (unit assumed)
# Excerpt: The following coagulation reagents were purchased from Diagnostica Stago (Parsippany, NJ): Thrombin 10 (Catalog No: 00611, lot No: 251851) for thrombin time (TT), Neoplastine® Cl 5 (Catalog No: 00666, lot No: 01504) for prothrombin time (PT), C.K. Prest® 5 (Catalog No: 00597, lot No: 112768) and CaCl2 (0.025 M, Catalog No: 00367, Lot No: 254158) for activated partial thromboplastin time (aPTT). Coagulometer STA rt4 (Diagnotica Stago) was used for ex vivo clotting time analysis.
# Blood samples (1 mL each) were collected in 3.2% sodium citrate (BD Biosciences, Franklin Lakes, NJ) before and after shunt set up from the femoral artery cannula and centrifuged at 2500 g for 15 minutes at 20° C. The resulting platelet poor plasma (PPP) was transferred into clean tubes and stored at −80° C. until use.
# Coagulation assays were performed with PPP in a 4 channel coagulometer STA rt4 (Diagnotica Stago). For the aPTT assay, 50 μl C.K. Preset reagent was incubated with 50 μl PPP for 3 min at 37° C. in a cuvette, and coagulation was initiated by adding 50 μl 25 mM CaCl2). The onset of clotting was recorded as the coagulation time.
# Statistical analysis: All the data are expressed as mean±SEM. Statistical analyses were performed using GraphPad Prism software (v8.0). Significance was defined at p<0.05 as determined by one-way ANOVA. Tukey's test was used for multiple comparisons.
# [4] = 0.15 + 0.13 mg/kg initial + maintenance, 20 min post initial dose
# [5] = 0.15 + 0.13 mg/kg initial + maintenance, 60 min post initial dose
# [6] = 0.5 + 0.43 mg/kg initial + maintenance, 20 min post initial dose
# [7] = 0.5 + 0.43 mg/kg initial + maintenance, 60 min post initial dose
# [8] = 1.5 + 1.3 mg/kg initial + maintenance, 20 min post initial dose
# [9] = 1.5 + 1.3 mg/kg initial + maintenance, 60 min post initial dose
# [10] = 5.0 + 4.3 mg/kg initial + maintenance, 20 min post initial dose
# [11] = 5.0 + 4.3 mg/kg initial + maintenance, 60 min post initial dose
# [12] = 15.0 + 13.0 mg/kg initial + maintenance, 20 min post initial dose
# [13] = 15.0 + 13.0 mg/kg initial + maintenance, 60 min post initial dose
compound,measurement,setting,value
"O=C1C=C(c2c(-n3cnnn3)ccc(Cl)c2F)C[C@H]2CC[C@@H](c3ncc(-c4ccnc(CO)c4F)[nH]3)N12 [Compound of formula (I-A), (3S,8aR)-7-(3-Chloro-2-fluoro-6-(1H-tetrazol-1-yl)phenyl)-3-(5-(3-fluoro-2-(hydroxymethyl)pyridin-4-yl)-1H-imidazol-2-yl)-2,3,8,8a-tetrahydroindolizin-5(1H)-one]",IC50,[1],> 100 µM
same,AMES II assay result,[2],negative
same,"ex vivo aPTT, Fold vs baseline",[3]; [4],1.37
same,"ex vivo aPTT Onset of Clotting Time, mean",[3]; [4],28.00
same,"ex vivo aPTT, Fold vs baseline",[3]; [5],1.17
same,"ex vivo aPTT Onset of Clotting Time, mean",[3]; [5],23.88
same,"ex vivo aPTT, Fold vs baseline",[3]; [6],1.24
same,"ex vivo aPTT Onset of Clotting Time, mean",[3]; [6],25.40
same,"ex vivo aPTT, Fold vs baseline",[3]; [7],1.02
same,"ex vivo aPTT Onset of Clotting Time, mean",[3]; [7],20.95
same,"ex vivo aPTT, Fold vs baseline",[3]; [8],1.59
same,"ex vivo aPTT Onset of Clotting Time, mean",[3]; [8],32.50
same,"ex vivo aPTT, Fold vs baseline",[3]; [9],1.37
same,"ex vivo aPTT Onset of Clotting Time, mean",[3]; [9],28.05
same,"ex vivo aPTT, Fold vs baseline",[3]; [10],2.32
same,"ex vivo aPTT Onset of Clotting Time, mean",[3]; [10],47.40
same,"ex vivo aPTT, Fold vs baseline",[3]; [11],2.14
same,"ex vivo aPTT Onset of Clotting Time, mean",[3]; [11],43.75
same,"ex vivo aPTT, Fold vs baseline",[3]; [12],3.40
same,"ex vivo aPTT Onset of Clotting Time, mean",[3]; [12],69.6
same,"ex vivo aPTT, Fold vs baseline",[3]; [13],3.27
same,"ex vivo aPTT Onset of Clotting Time, mean",[3]; [13],67.00
